Measured values as given in PMC11864979, “First-in-class ultralong-target-residence-time p38α inhibitors as a mitosis-targeted therapy for colorectal cancer” (Nature Cancer, 2025).
Where two headings read alike, the source gives them in different places.

Tests used:
Experiment in all cases: selectivity profiling in a panel of 340 wild-type kinases (Reaction Biology Europe)
Assay type in all cases: binding
[1] = target: T1, 340 wild-type kinases (Homo sapiens, UniProt Q9BXA7)
T1 construct: purchased Reaction Biology Europe
T1 sequence (Q9BXA7 1-367): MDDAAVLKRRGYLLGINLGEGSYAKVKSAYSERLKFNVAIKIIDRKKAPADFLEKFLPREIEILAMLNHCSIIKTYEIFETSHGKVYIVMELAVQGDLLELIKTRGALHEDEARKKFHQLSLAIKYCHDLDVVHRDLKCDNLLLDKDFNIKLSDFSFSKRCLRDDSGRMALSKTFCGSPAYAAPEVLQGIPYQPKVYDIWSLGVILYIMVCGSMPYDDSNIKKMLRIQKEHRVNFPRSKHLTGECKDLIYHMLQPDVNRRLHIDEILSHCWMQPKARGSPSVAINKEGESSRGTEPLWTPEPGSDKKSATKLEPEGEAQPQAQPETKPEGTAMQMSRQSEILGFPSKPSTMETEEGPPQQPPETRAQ

[2] = target: T2, 340 wild-type kinases (Homo sapiens, UniProt Q00536)
T2 construct: purchased Reaction Biology Europe
T2 sequence (Q00536 whole entry): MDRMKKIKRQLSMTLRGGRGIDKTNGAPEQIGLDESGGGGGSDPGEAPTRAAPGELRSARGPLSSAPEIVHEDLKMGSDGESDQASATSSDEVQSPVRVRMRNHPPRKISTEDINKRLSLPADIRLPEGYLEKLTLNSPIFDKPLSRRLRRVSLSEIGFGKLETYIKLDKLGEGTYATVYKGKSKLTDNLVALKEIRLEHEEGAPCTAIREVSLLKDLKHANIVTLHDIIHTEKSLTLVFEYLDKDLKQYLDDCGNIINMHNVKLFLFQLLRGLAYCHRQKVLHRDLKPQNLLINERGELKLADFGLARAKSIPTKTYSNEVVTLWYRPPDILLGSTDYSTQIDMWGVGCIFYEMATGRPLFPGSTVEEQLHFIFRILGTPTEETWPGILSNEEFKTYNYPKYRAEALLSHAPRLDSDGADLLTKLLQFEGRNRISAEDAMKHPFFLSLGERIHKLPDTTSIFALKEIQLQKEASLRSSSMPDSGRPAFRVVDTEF

[3] = target: T3, 340 wild-type kinases (Homo sapiens, UniProt Q15303)
T3 construct: purchased Reaction Biology Europe
T3 sequence (Q15303 26-1308): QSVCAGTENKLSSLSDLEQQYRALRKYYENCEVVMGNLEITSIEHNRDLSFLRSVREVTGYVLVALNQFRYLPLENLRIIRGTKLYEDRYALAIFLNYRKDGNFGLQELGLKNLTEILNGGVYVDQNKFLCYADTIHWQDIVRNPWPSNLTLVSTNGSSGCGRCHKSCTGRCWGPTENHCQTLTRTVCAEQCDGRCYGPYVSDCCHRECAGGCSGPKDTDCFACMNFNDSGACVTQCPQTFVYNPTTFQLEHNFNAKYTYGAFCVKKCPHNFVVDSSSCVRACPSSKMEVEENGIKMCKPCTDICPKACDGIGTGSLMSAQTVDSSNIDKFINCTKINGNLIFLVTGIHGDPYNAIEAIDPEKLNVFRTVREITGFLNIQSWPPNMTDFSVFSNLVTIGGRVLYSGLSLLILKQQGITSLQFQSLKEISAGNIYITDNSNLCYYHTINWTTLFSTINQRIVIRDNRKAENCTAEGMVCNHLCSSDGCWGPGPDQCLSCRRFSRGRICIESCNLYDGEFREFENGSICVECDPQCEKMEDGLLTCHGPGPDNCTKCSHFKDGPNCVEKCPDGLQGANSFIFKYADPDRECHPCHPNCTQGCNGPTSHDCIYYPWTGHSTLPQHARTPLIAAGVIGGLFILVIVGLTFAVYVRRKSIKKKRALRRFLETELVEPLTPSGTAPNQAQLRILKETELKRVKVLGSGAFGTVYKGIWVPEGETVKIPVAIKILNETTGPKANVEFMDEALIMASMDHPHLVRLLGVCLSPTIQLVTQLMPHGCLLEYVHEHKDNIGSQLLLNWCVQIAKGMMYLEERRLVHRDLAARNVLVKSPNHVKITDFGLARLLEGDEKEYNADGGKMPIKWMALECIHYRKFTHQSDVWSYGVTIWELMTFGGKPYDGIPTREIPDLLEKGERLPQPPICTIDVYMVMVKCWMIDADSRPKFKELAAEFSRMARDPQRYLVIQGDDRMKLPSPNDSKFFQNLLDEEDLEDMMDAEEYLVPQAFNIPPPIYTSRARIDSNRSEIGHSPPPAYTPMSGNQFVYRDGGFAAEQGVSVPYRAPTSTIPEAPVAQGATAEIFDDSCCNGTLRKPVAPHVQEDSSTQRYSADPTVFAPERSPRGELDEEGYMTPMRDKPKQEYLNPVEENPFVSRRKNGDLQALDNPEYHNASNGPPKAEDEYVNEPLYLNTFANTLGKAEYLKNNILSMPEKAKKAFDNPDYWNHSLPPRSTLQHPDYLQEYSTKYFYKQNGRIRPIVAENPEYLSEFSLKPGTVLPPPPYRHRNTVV

[4] = target: T4, 340 wild-type kinases (Homo sapiens, UniProt P30530)
T4 construct: purchased Reaction Biology Europe
T4 sequence (P30530 26-894): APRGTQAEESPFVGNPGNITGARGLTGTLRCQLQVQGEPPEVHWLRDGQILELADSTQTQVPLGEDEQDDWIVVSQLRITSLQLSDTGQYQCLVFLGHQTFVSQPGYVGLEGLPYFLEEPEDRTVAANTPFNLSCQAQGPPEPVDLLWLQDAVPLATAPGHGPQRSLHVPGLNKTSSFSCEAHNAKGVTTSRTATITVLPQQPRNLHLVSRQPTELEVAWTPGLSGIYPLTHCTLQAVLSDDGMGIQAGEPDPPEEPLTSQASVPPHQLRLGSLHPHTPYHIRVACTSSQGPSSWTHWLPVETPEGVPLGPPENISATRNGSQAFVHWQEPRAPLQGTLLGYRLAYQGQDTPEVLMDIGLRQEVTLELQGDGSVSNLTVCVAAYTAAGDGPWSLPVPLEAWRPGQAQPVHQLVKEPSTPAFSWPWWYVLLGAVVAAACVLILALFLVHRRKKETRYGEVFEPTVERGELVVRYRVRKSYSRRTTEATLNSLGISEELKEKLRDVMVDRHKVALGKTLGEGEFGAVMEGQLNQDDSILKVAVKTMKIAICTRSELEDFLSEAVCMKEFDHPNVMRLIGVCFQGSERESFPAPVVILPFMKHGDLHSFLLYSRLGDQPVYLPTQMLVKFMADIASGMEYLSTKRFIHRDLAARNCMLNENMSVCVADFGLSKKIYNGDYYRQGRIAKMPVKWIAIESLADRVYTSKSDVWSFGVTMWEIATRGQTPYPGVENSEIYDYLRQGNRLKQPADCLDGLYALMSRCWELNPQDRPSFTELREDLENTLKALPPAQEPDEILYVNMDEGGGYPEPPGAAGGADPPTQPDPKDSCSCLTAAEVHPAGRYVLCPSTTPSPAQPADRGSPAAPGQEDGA

[5] = target: T5, 340 wild-type kinases (Homo sapiens, UniProt O00444)
T5 construct: purchased Reaction Biology Europe
T5 sequence (O00444 1-970): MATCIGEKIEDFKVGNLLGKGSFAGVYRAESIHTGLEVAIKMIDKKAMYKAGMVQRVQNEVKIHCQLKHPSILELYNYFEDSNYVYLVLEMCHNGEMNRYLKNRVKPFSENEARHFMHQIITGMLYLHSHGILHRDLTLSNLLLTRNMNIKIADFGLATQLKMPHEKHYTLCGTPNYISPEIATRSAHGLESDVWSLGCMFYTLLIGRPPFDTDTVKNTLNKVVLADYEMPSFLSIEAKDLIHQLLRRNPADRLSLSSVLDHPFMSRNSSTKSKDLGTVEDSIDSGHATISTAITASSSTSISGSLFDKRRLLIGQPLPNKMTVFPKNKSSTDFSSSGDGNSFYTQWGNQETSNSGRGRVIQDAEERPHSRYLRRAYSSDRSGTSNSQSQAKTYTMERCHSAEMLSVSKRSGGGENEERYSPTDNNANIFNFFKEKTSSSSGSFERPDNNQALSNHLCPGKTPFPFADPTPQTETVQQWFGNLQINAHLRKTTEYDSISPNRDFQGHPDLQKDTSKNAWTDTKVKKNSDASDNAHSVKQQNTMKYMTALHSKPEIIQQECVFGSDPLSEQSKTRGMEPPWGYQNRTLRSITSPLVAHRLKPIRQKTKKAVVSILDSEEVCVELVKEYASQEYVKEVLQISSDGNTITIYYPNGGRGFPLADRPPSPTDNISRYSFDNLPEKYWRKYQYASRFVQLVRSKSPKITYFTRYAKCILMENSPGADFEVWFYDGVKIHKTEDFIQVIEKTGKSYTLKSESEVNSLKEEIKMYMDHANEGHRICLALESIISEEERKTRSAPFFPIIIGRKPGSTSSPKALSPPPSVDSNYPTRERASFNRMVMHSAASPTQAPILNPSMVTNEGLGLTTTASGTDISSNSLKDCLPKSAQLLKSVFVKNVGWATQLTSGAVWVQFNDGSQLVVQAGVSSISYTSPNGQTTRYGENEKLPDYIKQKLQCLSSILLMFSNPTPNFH

[6] = target: T6, 340 wild-type kinases (Homo sapiens, UniProt P50750)
T6 construct: purchased Reaction Biology Europe
T6 sequence (P50750 whole entry): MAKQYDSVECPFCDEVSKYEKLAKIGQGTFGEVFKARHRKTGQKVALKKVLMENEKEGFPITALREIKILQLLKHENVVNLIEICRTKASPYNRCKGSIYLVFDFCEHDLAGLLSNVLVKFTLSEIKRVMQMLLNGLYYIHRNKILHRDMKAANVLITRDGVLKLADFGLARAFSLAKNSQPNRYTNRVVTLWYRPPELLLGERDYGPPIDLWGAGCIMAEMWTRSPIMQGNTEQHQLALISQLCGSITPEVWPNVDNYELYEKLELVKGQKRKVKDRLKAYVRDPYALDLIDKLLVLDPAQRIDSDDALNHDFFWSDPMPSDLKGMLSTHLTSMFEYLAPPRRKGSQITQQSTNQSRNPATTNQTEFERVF

CNC(=O)c1ccc2c(c1)C(=O)c1ccc(Nc3ccc(F)c(NC(=O)C4CC4)c3)cc1CC2 [Compound 2015]
remaining activity at 0.2 µM ([1]; 0.2 µM 2015, read-out: TSSK1 residual activity): 125%
remaining activity at 1 µM ([1]; 1 µM 2015, read-out: TSSK1 residual activity): 106%
remaining activity at 0.2 µM ([1]; TSSK1, 0.2 µM, read-out: residual activity): 125%
remaining activity at 1 µM ([1]; TSSK1, 1 µM, read-out: residual activity): 106%
remaining activity at 0.2 µM ([2]; 0.2 µM 2015, read-out: CDK16/CycY residual activity): 99.3%
remaining activity at 1 µM ([2]; 1 µM 2015, read-out: CDK16/CycY residual activity): 96.8%
remaining activity at 0.2 µM ([2]; CDK16/CycY, 0.2 µM, read-out: residual activity): 99.3%
remaining activity at 1 µM ([2]; CDK16/CycY, 1 µM, read-out: residual activity): 96.8%
remaining activity at 0.2 µM ([3]; 0.2 µM 2015, read-out: ERBB4 residual activity): 120%
remaining activity at 1 µM ([3]; 1 µM 2015, read-out: ERBB4 residual activity): 101%
remaining activity at 0.2 µM ([3]; ERBB4, 0.2 µM, read-out: residual activity): 120%
remaining activity at 1 µM ([3]; ERBB4, 1 µM, read-out: residual activity): 101%
remaining activity at 0.2 µM ([4]; 0.2 µM 2015, read-out: AXL residual activity): 106%
remaining activity at 1 µM ([4]; 1 µM 2015, read-out: AXL residual activity): 92.6%
remaining activity at 0.2 µM ([4]; AXL, 0.2 µM, read-out: residual activity): 106%
remaining activity at 1 µM ([4]; AXL, 1 µM, read-out: residual activity): 92.6%
remaining activity at 0.2 µM ([5]; 0.2 µM 2015, read-out: SAK residual activity): 103%
remaining activity at 1 µM ([5]; 1 µM 2015, read-out: SAK residual activity): 104%
remaining activity at 0.2 µM ([5]; SAK, 0.2 µM, read-out: residual activity): 103%
remaining activity at 1 µM ([5]; SAK, 1 µM, read-out: residual activity): 104%
remaining activity at 0.2 µM ([6]; 0.2 µM 2015, read-out: CDK9/CycK residual activity): 94.2%
remaining activity at 0.2 µM ([6]; 0.2 µM 2015, read-out: CDK9/CycT1 residual activity): 107%
remaining activity at 1 µM ([6]; 1 µM 2015, read-out: CDK9/CycK residual activity): 95.1%
remaining activity at 1 µM ([6]; 1 µM 2015, read-out: CDK9/CycT1 residual activity): 94%
remaining activity at 0.2 µM ([6]; CDK9/CycK, 0.2 µM, read-out: residual activity): 94.2%
remaining activity at 1 µM ([6]; CDK9/CycK, 1 µM, read-out: residual activity): 95.2%
remaining activity at 0.2 µM ([6]; CDK9/CycT1, 0.2 µM, read-out: residual activity): 107%
remaining activity at 1 µM ([6]; CDK9/CycT1, 1 µM, read-out: residual activity): 94%
